Experimental data reported in PMC11098465, “A comparative analysis of peptide-delivered antisense antibiotics using diverse nucleotide mimics” (RNA, 2024).
Values joined by “and” are separate entries in the source; they are usually repeats but may differ in a detail not shown here. Equal entries are not always repeated.

Columns and labels:
[1] = test system: 10 nt long target mRNA (acpP, fully complementary 10mer RNA fragment); experiment: Thermal UV melting curves of ASO:RNA duplexes; assay type: binding, Salmonella; conditions: unconjugated ASO and 10 nt target RNA, 2 µM each mixed 1:1; 100 mM NaCl, 10 mM phosphate, pH 7.0; UV 260 nm, 10-90°C at 0.5°C/min, five ramps; two-state fit
Method: Next, we assessed the melting temperatures of each ASO:RNA duplex across a temperature range of 10°C–90°C (Fig. 3A; Supplemental Fig. S3). In this experiment, we used a fully complementary 10mer RNA fragment instead of the 40 nt long target RNA sequence, because the longer target might form internal secondary structures that could interfere with the measurement of the melting temperature. […] This is in line with previous observations ([Freier and Altmann 1997]) and our EMSA results (Fig. 2). […] The melting temperature of RNA-F and RNA-MOE was around 56°C (Table 1).
Three hundred microliters of 10 nt long target mRNA (2 µM) was mixed with 300 µL of each of the ASOs (2 µM) in phosphate buffer (100 mM NaCl, 10 mM phosphate, pH 7.0). Thermal UV melting curves were recorded at Agilent Cary UV–Vis Multicell Peltier. Before measurement, the samples were overlaid with silicon oil to prevent evaporation during heating. Five temperature ramps with a heating/cooling rate of 0.5°C/min between 10°C and 90°C at 260 nm were collected. All the melting curves were plotted using OriginPro 2023, fit to a two-state transition model with upper and lower baselines to determine Tm as previously reported ([Dietzsch et al. 2022]).

[2] = test system: AcpP::3xFLAG; experiment: Western blot of AcpP::3xFLAG protein levels after ASO treatment; assay type: cell-based, Salmonella enterica serovar Typhimurium SL1344 AcpP::3xFLAG; set-up: key to AcpP protein reduction: +++: Effect strength is represented by additional (+) signs.; ++: Effect strength is represented by additional (+) signs.; Effect strength is represented by additional (+) signs; conditions: for AcpP protein levels after treatment (in words): KFF-ASO 5 µM, 30, 60, 120 min; for AcpP protein reduction: KFF-ASO constructs at 5 µM, 120 min, summary grade
Excerpt: We have previously shown that PNAs targeting acpP lead to rapid depletion of the target transcript ([Hör et al. 2022]; [Popella et al. 2022]; [Jung et al. 2023]), although this is not a universal phenomenon and varies from transcript to transcript ([Popella et al. 2022]). In other words, an ASO might block target protein synthesis without substantially impacting mRNA levels. Therefore, we wanted to test if the different ASO modalities affect AcpP protein levels in cellulo despite their inability to deplete the acpP transcript. We took advantage of Salmonella expressing a FLAG-tagged AcpP (AcpP::3xFLAG) protein from its native locus. First, we exposed the bacterial cells to PMO and PNA for 30, 60, or 120 min (Fig. 9A) to determine the best time point for our analysis.
Salmonella WT and SL1344 AcpP::3xFLAG were grown overnight in noncation adjusted MHB. Bacterial cultures were diluted 1:100, grown to OD600 0.5, and subsequently diluted to ∼10^6 cfu/mL in MHB. Then, 1.9 mL of each diluted bacterial solution was transferred into 5 mL low-binding tubes, preincubated at 37°C for 10 min, and treated with 100 µL of ASOs to adjust a final concentration of 5 µM. Water was added as negative control. The treatment with PNA and PMO was performed with aeration at 37°C and 220 rpm shaking for 30, 60, and 120 while for all other ASOs, they were treated for 120 min only. Subsequently, the cells were collected by centrifugation at 4°C and 16,000g for 5 min, resuspended in 1× Protein Loading Buffer (62.6 mM Tris–HCl pH 6.8, 2% SDS, 0.1 mg/mL bromophenol blue, 15.4 mg/mL DTT, 10% glycerol) and denatured at 95°C for 10 min.
For detection of AcpP::3xFLAG protein levels, samples were separated on a 12% SDS-PAA gel and transferred onto a nitrocellulose membrane via semi-dry western blotting. The membrane was probed with an α-FLAG antibody (Sigma; 1:1000 in 1× TBS-T containing 3% BSA) at 4°C overnight. After washing in 1× TBS-T, the membrane was incubated with a secondary HRP-conjugated antimouse antibody (Thermo Scientific; 1:5000 in 1× TBS-T containing 1% BSA) at RT for 1 h. Excessive antibody was removed by repeated wash-steps in 1× TBS-T, and the membrane was developed by an Amersham ECL Select Western Blotting Detection Reagent Kit (Cytiva).

Row | Substance | Tm of ASO:mRNA complexes [1] | AcpP protein levels after treatment (in words) [2] | AcpP protein reduction [2]
1 | DNA-PTO: phosphorothioate-modified DNA 10mer ASO, sequence CTCATACTCT, targeting acpP −5 to +5 (DNA, all phosphorothioate, methylation of C not given here) | 25.8 °C and 25.8 ± 0.7 °C | – | –
2 | LNA: 2′–4′-locked RNA 10mer ASO, sequence CTCATACTCT, targeting acpP −5 to +5 (all LNA, backbone and methylation of C not given here) | 87.4 °C and 87.4 ± 2 °C | – | –
3 | PMO: phosphorodiamidate morpholino 10mer ASO, sequence CTCATACTCT, targeting acpP −5 to +5 (all phosphorodiamidate morpholino (PMO)) | 41.8 °C and 41.8 ± 0.6 °C | gradual depletion of AcpP, albeit less pronounced than PNA | +
4 | PNA: peptide nucleic acid 10mer ASO, sequence CTCATACTCT, targeting acpP −5 to +5 (all peptide nucleic acid (PNA)) | 44.3 °C and 44.3 ± 1.1 °C | depletion in AcpP levels can be observed from 60 min post-treatment onward | ++
5 | RNA-OMe: 2′-methylated RNA 10mer ASO, sequence CTCATACTCT, targeting acpP −5 to +5 (all 2'-O-methyl, backbone and T or U not given here) | 48.3 °C and 48.3 ± 0.8 °C | – | –
